In patent US20100099676A1 (SHIONOGI & CO., LTD., priority 2006, published 2010):
Where two headings read alike, the source gives them in different places.

Assays:
Test in all cases: Enzyme inhibiting activity of MMPs, fluorogenic peptide substrate
Format in all cases: biochemical
MMP-2 = biological target: T1, MMP-2 (Homo sapiens, UniProt P08253); conditions: substrate MOCAc-Pro-Leu-Gly-Leu-A2Pr(DNP)-Ala-Arg-NH2, fluorescent intensity
T1 construct: purchased Calbiochem (EMD/MERCK Biosciences)
T1 sequence (P08253 110-660): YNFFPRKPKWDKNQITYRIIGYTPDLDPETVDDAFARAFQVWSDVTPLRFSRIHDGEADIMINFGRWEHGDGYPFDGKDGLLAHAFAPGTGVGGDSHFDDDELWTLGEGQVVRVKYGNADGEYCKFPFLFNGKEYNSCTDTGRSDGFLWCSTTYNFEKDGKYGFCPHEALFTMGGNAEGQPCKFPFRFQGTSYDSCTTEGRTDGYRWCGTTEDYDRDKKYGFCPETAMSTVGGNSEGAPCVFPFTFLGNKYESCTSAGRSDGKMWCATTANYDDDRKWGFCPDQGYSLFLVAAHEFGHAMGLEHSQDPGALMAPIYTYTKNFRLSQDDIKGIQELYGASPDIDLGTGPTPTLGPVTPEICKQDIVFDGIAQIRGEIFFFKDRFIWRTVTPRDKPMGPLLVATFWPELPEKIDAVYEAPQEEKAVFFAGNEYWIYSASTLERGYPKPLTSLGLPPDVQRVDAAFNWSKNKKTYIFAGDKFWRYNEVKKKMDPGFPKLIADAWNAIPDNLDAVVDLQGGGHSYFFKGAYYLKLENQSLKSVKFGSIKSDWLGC
Experimental: (§1) Various human MMPs (MMP-2, MMP-9 and MMP-13) were purchased from Calbiochem (EMD/MERCK Biosciences).
(§2) The enzyme activity of MMPs was measured according to the method described in C. Graham Knight, Frances Willenbrock and Gillian Murphy: A novel coumarin-labelled peptide for sensitive continuous assays of the matrix metalloproteinases: FEBS LETT., 296, (1992), 263-266. As a substrate, MOCAc-Pro-Leu-Gly-Leu-A2Pr(DNP)- Ala-Arg-NH2 (Peptide Institute, Inc. Osaka, Japan) was used, and the following four assays are performed per compound (inhibitor) for measuring the inhibiting activity.
(§3) (A) Substrate (synthetic substrate), enzyme (MMPs), inhibitor
(§4) (B) Substrate (synthetic substrate), inhibitor
(§5) (C) Substrate (synthetic substrate), enzyme (MMPs)
(§6) (D) Substrate (synthetic substrate)
(§7) In each assay, the fluorescent intensity was measured, and inhibition (%) was calculated by the following equation.
(§8) Inhibition (%)=[I−(A−B)/(C−D)]×100
(§9) IC50 indicates a concentration at which inhibition (%) is 50%.

MMP-9 = biological target: T2, MMP-9 (Homo sapiens, UniProt P14780); conditions: substrate MOCAc-Pro-Leu-Gly-Leu-A2Pr(DNP)-Ala-Arg-NH2, fluorescent intensity
T2 construct: purchased Calbiochem (EMD/MERCK Biosciences)
Experimental: as §1, §2, §3, §4, §5, §6, §7, §8, §9

MMP-13 = biological target: T3, MMP-13 (Homo sapiens, UniProt P45452)
T3 construct: purchased Calbiochem (EMD/MERCK Biosciences)
Experimental: as §1
Since the purchased MMP-13 was Proenzyme, the activated one was used, which was incubated at 37° C. for 2 hours after the successive addition of an assay buffer (containing 50 mM Tris-HCl (pH7.6), 0.3 M NaCl, 10 mM CaCl2, 0.005% Brij35) and APMA (final concentration 1 mM) to the enzyme solution.
as §2, §3, §4, §5, §6, §7, §8, §9

[1] = APMA-activated proenzyme, substrate MOCAc-Pro-Leu-Gly-Leu-A2Pr(DNP)-Ala-Arg-NH2, fluorescent intensity, read-out: IC50 MMP-13
[2] = compounds not described in the Tables, read-out: inhibiting activity for MMP-13

T2 sequence (P14780 94-707): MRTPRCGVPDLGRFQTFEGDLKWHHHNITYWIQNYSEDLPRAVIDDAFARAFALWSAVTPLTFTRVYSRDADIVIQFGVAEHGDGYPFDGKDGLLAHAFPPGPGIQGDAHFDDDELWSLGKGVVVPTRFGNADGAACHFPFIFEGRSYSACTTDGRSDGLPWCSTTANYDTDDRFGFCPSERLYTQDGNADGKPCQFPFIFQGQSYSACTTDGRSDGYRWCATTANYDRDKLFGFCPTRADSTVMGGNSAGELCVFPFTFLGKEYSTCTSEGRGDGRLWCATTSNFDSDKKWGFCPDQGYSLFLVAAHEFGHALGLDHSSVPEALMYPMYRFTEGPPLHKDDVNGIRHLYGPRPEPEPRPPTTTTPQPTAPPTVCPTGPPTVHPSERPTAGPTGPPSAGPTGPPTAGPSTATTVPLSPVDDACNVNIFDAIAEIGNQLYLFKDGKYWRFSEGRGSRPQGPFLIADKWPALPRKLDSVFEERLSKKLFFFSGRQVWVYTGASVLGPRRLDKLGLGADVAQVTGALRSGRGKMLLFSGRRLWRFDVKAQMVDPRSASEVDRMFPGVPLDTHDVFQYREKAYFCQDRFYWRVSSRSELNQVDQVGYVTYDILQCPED

Row | Structure (SMILES) | IC50 (MMP-2) | IC50 (MMP-9) | IC50 (MMP-13; [1]) | IC50 (MMP-13; [2])
1 | CC(C)[C@@H](NS(=O)(=O)N1CCN(c2ccc(C#Cc3ccnc(C(=O)NCc4ccc(N5CCOCC5)cc4)c3)cc2)CC1)C(=O)O | 1000 to 10000 nM | > 10000 nM | 4 nM | –
2 | C[C@@H](NS(=O)(=O)N1CCN(c2ccc(C#Cc3cccc(C(=O)NCc4ccccc4)c3)cc2)CC1)C(=O)O [Compound I-1, (1)-2-{4-[4-(3-benzylcarbamoylphenylethynyl)-phenyl]-piperazine-1-sulfonylamino}-proponic acid] | 100 to 1000 nM | > 10000 nM | 2.1 nM | –
3 | C[C@@H](NS(=O)(=O)N1CCN(c2ccc(/C=C/c3cccc(C(=O)NCc4ccccc4)c3)cc2)CC1)C(=O)O [Compound I-2, (R)-2-(4-{4-[(E)-2-(3-benzylcarbamoylphenyl)-vinyl]-phenyl}-piperazine-1-sulfonylamino)-proponic acid] | 100 to 1000 nM | > 10000 nM | 3.8 nM | –
4 | C[C@@H](NS(=O)(=O)N1CCN(c2ccc(C#Cc3ccc4cccc(C(=O)N5CCOCC5)c4c3)cc2)CC1)C(=O)O [Compound I-33, (R)-2-(4-{4-[8-(morpholine-4-carbonyl)-naphthalen-2-ylethynyl]-phenyl}-piperazine-1-sulfonylamino)-proponic acid] | 1000 to 10000 nM | > 10000 nM | 11 nM | –
5 | C[C@H](NS(=O)(=O)N1CCN(c2ccc(C#Cc3ccc4cccc(C(N)=O)c4c3)cc2)CC1)C(=O)O [Compound I-105, (S)-2-{4-[4-(8-carbamoylnaphthalen-2-ylethynyl)-phenyl]-piperazine-1-sulfonylamino}-proponic acid] | – | – | – | 10 to 100 nM
6 | C[C@@H](NS(=O)(=O)N1CCN(c2ccc(C#Cc3ccc4cccc(C(=O)NCc5ccccc5)c4c3)cc2)CC1)C(=O)O [Compound I-106, (R)-2-{4-[4-(8-benzylcarbamoylnaphthalen-2-ylethynyl)-phenyl]-piperazine-1-sulfonylamino}-proponic acid] | – | – | – | < 10 nM
7 | C[C@@H](NS(=O)(=O)N1CCN(c2ccc(C#Cc3ccc4cccc(C(=O)NC5CC5)c4c3)cc2)CC1)C(=O)O [Compound I-107, (R)-2-{4-[4-(8-cyclopropylcarbamoylnaphthalen-2-ylethynyl)-phenyl]-piperazine-1-sulfonylamino}-proponic acid] | – | – | – | < 10 nM
8 | Cc1cnc(-c2cccc3ccc(C#Cc4ccc(N5CCN(S(=O)(=O)N[C@H](C)C(=O)O)CC5)cc4)cc23)o1 [Compound I-108, (R)-2-(4-{4-[8-(5-methyloxazol-2-yl)-naphthalen-2-ylethynyl]-phenyl}-piperazine-1-sulfonylamino)-proponic acid] | – | – | – | 10 to 100 nM
9 | C[C@@H](NS(=O)(=O)N1CCN(c2ccc(C#Cc3ccc4cccc(-c5ncco5)c4c3)cc2)CC1)C(=O)O [Compound I-109, (R)-2-{4-[4-(8-oxazol-2-ylnaphthalen-2-ylethynyl)-phenyl]-piperazine-1-sulfonylamino}-proponic acid] | – | – | – | 10 to 100 nM
10 | CCC[C@H](NS(=O)(=O)N1CCN(c2ccc(C#Cc3ccc4cccc(C(C)=O)c4c3)cc2)CC1)C(=O)O [Compound I-110, (S)-2-{4-[4-(8-acetylnaphthalen-2-ylethynyl)-phenyl]-piperazine-1-sulfonylamino}-pentanoic acid] | – | – | – | 10 to 100 nM
11 | C[C@@H](NS(=O)(=O)N1CCN(c2ccc(C#Cc3ccc4cccc(-c5ccc[nH]5)c4c3)cc2)CC1)C(=O)O [Compound I-111, (R)-2-(4-{4-[8-(1H-pyrrol-2-yl)-naphthalen-2-ylethynyl]-phenyl}-piperazine-1-sulfonylamino)-proponic acid] | – | – | – | 10 to 100 nM
12 | C[C@@H](NS(=O)(=O)N1CCN(c2ccc(C#Cc3ccc4c(c3)C(c3ccco3)=CCC4)cc2)CC1)C(=O)O [Compound I-112, (R)-2-{4-[4-(8-furan-2-yl-5-6-dihydronaphthalen-2-ylethynyl)-phenyl]-piperazine-1-sulfonylamino}-proponic acid] | > 10000 nM | > 10000 nM | 62 nM | –
13 | C[C@@H](NS(=O)(=O)N1CCN(c2ccc(C#Cc3ccc4c(c3)/C(=N\OCc3ccccc3)CCO4)cc2)CC1)C(=O)O [Compound I-113, (R)-2-[4-(4-{4-[(Z)-benzyloxyimino]-chroman-6-ylethynyl}-phenyl)-piperazine-1-sulfonylamino]-proponic acid] | > 10000 nM | > 10000 nM | 71 nM | –
14 | C[C@@H](NS(=O)(=O)N1CCN(c2ccc(C#Cc3ccc4c(c3)c(/C=C/C#N)cn4C)cc2)CC1)C(=O)O [Compound I-114, (R)-2-(4-{4-[3-((E)-2-cyanovinyl)-1-methyl-1H-indol-5-ylethynyl]-phenyl}-piperazine-1-sulfonylamino)-proponic acid] | 1000 to 10000 nM | > 10000 nM | 11 nM | –
15 | Cc1cc(C(=O)NC(C)C)c2cc(C#Cc3ccc(N4CCN(S(=O)(=O)N[C@H](C)C(=O)O)CC4)cc3)ccc2n1 [Compound I-115, (R)-2-{4-[4-(4-isopropylcarbamoyl-2-methylquinolin-6-ylethynyl)-phenyl]-piperazine-1-sulfonylamino}-proponic acid] | 1000 to 10000 nM | > 10000 nM | 12 nM | –
16 | CC(C)CO/N=C1\CCc2ccc(C#Cc3ccc(N4CCN(S(=O)(=O)N[C@H](C)C(=O)O)CC4)cc3)cc21 [Compound I-161, (R)-2-[4-(4-{3-[(E)-isobutoxyimino]indan-5-ylethynyl}-phenyl)-piperazine-1-sulfonylamino]-proponic acid] | – | – | – | 10 to 100 nM
17 | CC(=O)c1nccc2ccc(C#Cc3ccc(N4CCN(S(=O)(=O)N[C@@H](C(=O)O)C(C)C)CC4)cc3)cc12 [Compound V-1, (R)-2-{4-[4-(1-acetylisoquinolin-7-ylethynyl)-phenyl]-piperazine-1-sulfonylamino}-3-methylbutanoic acid] | 1000 to 10000 nM | > 10000 nM | 46 nM | –
18 | C[C@@H](NS(=O)(=O)N1CCN(c2ccc(C#Cc3ccnc(C(=O)NCc4ccc5c(c4)oc(=O)n5C)c3)cc2)CC1)C(=O)O [Compound V-2, (R)-2-[4-(4-{2-(3-methyl-2-oxo-2,3-dihydrobenzoxazol-6-ylmethyl)-carbamoyl]-pyridin-4-ylethynyl}-phenyl)-piperazine-1-sulfonylaminol-proponic acid] | 1000 nM | > 10000 nM | 1 nM | –
19 | CC(C)COc1ccc(C#Cc2ccc(N3CCN(S(=O)(=O)N[C@@H](C(=O)O)C(C)C)CC3)cc2)cc1C(=O)NCc1ccncc1 [Compound V-5, (R)-2-[4-(4-{4-isobutoxy3-[(pyridin-4-ylmethyl)carbamoyl]-phenylethynyl}-phenyl)-piperazine-1-sulfonylamino]-3-methylbutanoic acid] | 1000 to 10000 nM | > 10000 nM | 18 nM | –
20 | CC(C)COc1ccc(C#Cc2ccc(N3CCN(S(=O)(=O)N[C@@H](C(=O)O)C(C)C)CC3)cc2)cc1C(=O)NCc1ccc(S(C)(=O)=O)cc1 [Compound V-6, (R)-2-(4-{4-[4-isobutoxy-3-(4-methanesulfonylbenzylcarbamoyl)-phenylethynyl]-phenyl}-piperazine-1-sulfonylamino)-3-methylbutanoic acid] | > 10000 nM | > 10000 nM | 19 nM | –
21 | COc1ccc(CNC(=O)c2cc(C#Cc3ccc(N4CCN(S(=O)(=O)NC(C)(C)C(=O)O)CC4)cc3)ccn2)cc1 [Compound V-7, 2-(4-{4-[2-(4-methoxybenzylcarbamoyl)-pyridin-4-ylethynyl]-phenyl}-piperazine-1-sulfonylamino)-2-methylproponic acid] | 1000 to 10000 nM | > 10000 nM | 12 nM | –
22 | CC(C)Cc1coc(-c2cc(C#Cc3ccc(N4CCN(S(=O)(=O)N[C@@H](C(=O)O)C(C)C)CC4)cc3)ccn2)n1 [Compound V-8, (R)-2-(4-{4-[2-(4-isobutyloxazol-2-yl)-pyridin-4-ylethynyl]-phenyl}-piperazine-1-sulfonylamino)-3-methylbutanoic acid] | 1000 to 10000 nM | > 10000 nM | 7 nM | –
